From patent US9115151B2, “Substituted 2,10-dihydro-9-oxa-1,2,4A-triazaphenanthren-3-ones and uses thereof” (AbbVie Inc., priority 2012, dated 2015)
pEC50, pIC50: −log10 of the molar value. Counter-ions that a name gives are not always drawn.

Experiments:
PKCα = molecular target: T1, PKCα (Homo sapiens, UniProt P17252); assay: In vitro enzyme assay (time-resolved fluorescence kinase assay), PKCα, 100 μM ATP; type: biochemical; conditions: 100 μM ATP; read-out: PKCα enzyme IC50
T1 construct: His6; purchased Millipore; host or cells: baculovirus in Sf21 cells
How it was run: (§1)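 Read-out was time-resolved fluorescence, corrected for a minus-enzyme blank and converted to percent activity relative to enzyme without drug. They were stopped with EDTA.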

[1] = system: CD3/CD28 induced IL-2 in human T-Blasts; assay: T-Blasts CD3/CD28 induced IL-2 assay; type: cell-based; conditions: read-out: CD3/CD28-stimulated IL2 in T-blasts EC50
How it was run: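 PHA-generated human T-blasts, 2×10^5 per well, preincubated 30 min with 8-point 1/3 compound dilutions in duplicate, then stimulated with anti-CD3+anti-CD28 (5 μg/mL final) for 24 h at 37° C. Supernatant IL-2 measured; MTT toxicity run on remaining cells.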

PKCθ = molecular target: T2, PKCθ (Homo sapiens, UniProt Q04759); assay: In vitro enzyme assay (time-resolved fluorescence kinase assay), PKCθ, 100 μM ATP; type: biochemical
T2 construct: His6; purchased Millipore; host or cells: baculovirus in Sf21 cells
How it was run: as §1

T2 sequence (Q04759 whole entry): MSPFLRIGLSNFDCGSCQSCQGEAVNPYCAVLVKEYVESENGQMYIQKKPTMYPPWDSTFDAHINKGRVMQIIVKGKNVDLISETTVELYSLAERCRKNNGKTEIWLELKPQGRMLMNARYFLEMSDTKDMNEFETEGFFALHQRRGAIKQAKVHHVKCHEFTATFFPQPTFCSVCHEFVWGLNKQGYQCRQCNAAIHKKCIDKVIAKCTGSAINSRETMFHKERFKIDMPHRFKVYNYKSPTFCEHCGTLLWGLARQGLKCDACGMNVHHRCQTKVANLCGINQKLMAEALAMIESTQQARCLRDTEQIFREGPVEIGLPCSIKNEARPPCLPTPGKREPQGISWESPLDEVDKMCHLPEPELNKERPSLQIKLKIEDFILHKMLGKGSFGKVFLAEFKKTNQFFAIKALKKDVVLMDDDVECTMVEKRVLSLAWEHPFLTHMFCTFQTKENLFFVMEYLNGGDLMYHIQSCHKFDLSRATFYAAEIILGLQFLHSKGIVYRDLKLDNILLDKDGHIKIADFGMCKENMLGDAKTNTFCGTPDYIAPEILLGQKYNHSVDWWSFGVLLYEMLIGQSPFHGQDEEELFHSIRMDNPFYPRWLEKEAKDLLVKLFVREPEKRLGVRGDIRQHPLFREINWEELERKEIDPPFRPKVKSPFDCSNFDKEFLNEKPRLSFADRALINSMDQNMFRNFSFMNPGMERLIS

SMILES | pIC50 (PKCα) | pEC50 [1] | pIC50 (PKCθ)
C[C@@H]1C(=O)NN=C2COc3cc4ccn([C@]5(C)CCNC5)c4cc3N21 [Example 164, (R)-1-Methyl-10-((R)-3-methyl-pyrrolidin-3-yl)-3,5-dihydro-10H-6-oxa-3,4,10,11b-tetraaza-cyclopenta[b]phenanthren-2-one] | 5.00 to 6.00 | 6.00 to 6.60 | > 6.60
CC1C(=O)NN=C2COc3cc(-c4cccc(C#N)c4)c(N(C)C4(C)CN(C)C4)cc3N21 (stereo not drawn) [Example 170] | 5.00 to 6.00 | > 6.60 | > 6.60
CC1C(=O)NN=C2COc3cc(-c4ccco4)c(N(C)C4(C)CN(C)C4)cc3N21 (stereo not drawn) [Example 171] | 5.00 to 6.00 | > 6.60 | > 6.60
CC1C(=O)NN=C2COc3cc(-c4ccoc4)c(N(C)C4(C)CN(C)C4)cc3N21 (stereo not drawn) [Example 173] | 5.00 to 6.00 | 6.00 to 6.60 | > 6.60
CC1C(=O)NN=C2COc3cc(-c4ccc(C#N)cc4)c(N(C)C4(C)CN(C)C4)cc3N21 (stereo not drawn) [Example 174] | 5.00 to 6.00 | 6.00 to 6.60 | > 6.60
C[C@@H]1C(=O)NN=C2COc3cc(-c4ccccc4CCO)c(N(C)C4(C)CN(C)C4)cc3N21 [Example 180] | 5.00 to 6.00 | > 6.60 | > 6.60
COCc1ccccc1-c1cc2c(cc1N(C)C1(C)CN(C)C1)N1C(=NNC(=O)[C@H]1C)CO2 [Example 181] | 5.00 to 6.00 | 6.00 to 6.60 | > 6.60
C[C@@H]1C(=O)NN=C2COc3cc(C4=CCC(F)(F)CC4)c(N(C)C4(C)CN(C)C4)cc3N21 [Example 182] | 5.00 to 6.00 | 6.00 to 6.60 | > 6.60
CC(=O)N1CC(C)(N(C)c2cc3c(cc2-c2ccccc2F)OCC2=NNC(=O)[C@@H](C)N23)C1 [Example 183, (R)-6-[(1-Acetyl-3-methyl-azetidin-3-yl)-methyl-amino]-7-(2-fluoro-phenyl)-4-methyl-2,10-dihydro-9-oxa-1,2,4a-triaza-phenanthren-3-one] | 5.00 to 6.00 | 6.00 to 6.60 | > 6.60
C[C@@H]1C(=O)NN=C2COc3cc(-c4ccccc4F)c(N(C)C4(C)CN(C(=O)CO)C4)cc3N21 [Example 184] | 5.00 to 6.00 | 6.00 to 6.60 | > 6.60
C[C@@H]1C(=O)NN=C2COc3cc(-c4ccccc4F)c(N(C)C4(C)CN(C(=O)C(F)(F)F)C4)cc3N21 [Example 186] | 5.00 to 6.00 | 6.00 to 6.60 | 6.00 to 6.60
C[C@@H]1C(=O)NN=C2COc3cc(-c4ccccc4F)c(N(C)C4(C)CN(C(=O)CN(C)C)C4)cc3N21 [Example 187] | 5.00 to 6.00 | 6.00 to 6.60 | > 6.60
C[C@@H]1C(=O)NN=C2COc3cc(-c4ccccc4F)c(N(C)C4(C)CN(CCO)C4)cc3N21 [Example 191] | 6.00 to 6.60 | > 6.60 | > 6.60
COCCN1CC(C)(N(C)c2cc3c(cc2-c2ccccc2F)OCC2=NNC(=O)[C@@H](C)N23)C1 [Example 192] | 6.00 to 6.60 | > 6.60 | > 6.60
C[C@@H]1C(=O)NN=C2COc3cc(-c4ccccc4F)c(N(C)C4(C)CN(CCC(F)(F)F)C4)cc3N21 [Example 193] | 5.00 to 6.00 | 6.00 to 6.60 | > 6.60
C[C@@H]1C(=O)NN=C2COc3cc(-c4ccccc4F)c(N(C)C4(C)CN(C5COC5)C4)cc3N21 [Example 194] | 6.00 to 6.60 | 6.00 to 6.60 | > 6.60
C[C@@H]1C(=O)NN=C2COc3cc(-c4ccccc4CO)c(N(C)C4(C)CN(CCO)C4)cc3N21 [Example 195] | 5.00 to 6.00 | > 6.60 | > 6.60
CC1C(=O)NN=C2COc3cc(-c4ccccc4)c(N(C)C4(C)CN(C5COC5)C4)cc3N21 (stereo not drawn) [Example 196] | 5.00 to 6.00 | 5.00 to 6.00 | > 6.60
CC(C)c1cc2c(cc1[C@@H]1CCNC[C@@H]1C)N1C(=NNC(=O)[C@H]1C)CO2 [Example 202] | 5.00 to 6.00 | > 6.60 | > 6.60
C[C@@H]1CNCC[C@@H]1c1cc2c(cc1-c1ccccc1CO)OCC1=NNC(=O)[C@@H](C)N12 [Example 204] | 5.00 to 6.00 | 6.00 to 6.60 | > 6.60
C[C@@H]1CN(C)CC[C@@H]1c1cc2c(cc1-c1ccccc1CO)OCC1=NNC(=O)[C@@H](C)N12 [Example 205] | 6.00 to 6.60 | > 6.60 | > 6.60
C[C@@H]1C(=O)NN=C2COc3cc(-c4ccccc4F)c([C@@H]4CCN(CCO)C[C@@H]4C)cc3N21 [Example 206] | 5.00 to 6.00 | > 6.60 | > 6.60
C[C@@H]1CN(CCO)CC[C@@H]1c1cc2c(cc1-c1ccccc1F)OCC1=NNC(=O)[C@@H](C)N12 [Example 207] | 5.00 to 6.00 | 6.00 to 6.60 | > 6.60
CC(C)c1cc2c(cc1C1CCNCC1)N1C(=NNC(=O)[C@H]1C)CO2 [Example 208] | 5.00 to 6.00 | > 6.60 | > 6.60
C[C@@H]1C(=O)NN=C2COc3cc(-c4ccccc4Cl)c(C4CCNCC4)cc3N21 [Example 210] | 5.00 to 6.00 | > 6.60 | > 6.60

Second part, the molecule after the results:

pIC50 (PKCα) | pEC50 [1] | pIC50 (PKCθ) | SMILES
> 6.60 | > 6.60 | > 6.60 | C[C@@H]1C(=O)NN=C2COc3cc4ccn([C@@]5(C)CCNC5)c4cc3N21 [Example 163, (R)-1-Methyl-10-((S)-3-methyl-pyrrolidin-3-yl)-3,5-dihydro-10H-6-oxa-3,4,10,11b-tetraaza-cyclopenta[b]phenanthren-2-one]
> 6.60 | > 6.60 | > 6.60 | CCN(c1cc2c(cc1-c1ccccc1F)OCC1=NNC(=O)C(C)N12)C1(C)CN(C)C1 (stereo not drawn) [Example 166, 6-[(1,3-Dimethyl-azetidin-3-yl)-ethyl-amino]-7-(2-fluoro-phenyl)-4-methyl-2,10-dihydro-9-oxa-1,2,4a-triaza-phenanthren-3-one hydrochloride acid]
6.00 to 6.60 | > 6.60 | > 6.60 | Cc1ccc(-c2cc3c(cc2N(C)C2(C)CN(C)C2)N2C(=NNC(=O)C2C)CO3)cc1 (stereo not drawn) [Example 167]
6.00 to 6.60 | > 6.60 | > 6.60 | CC1C(=O)NN=C2COc3cc(-c4ccc(F)cc4)c(N(C)C4(C)CN(C)C4)cc3N21 (stereo not drawn) [Example 168]
6.00 to 6.60 | > 6.60 | > 6.60 | CC1C(=O)NN=C2COc3cc(-c4cccc(F)c4)c(N(C)C4(C)CN(C)C4)cc3N21 (stereo not drawn) [Example 169]
6.00 to 6.60 | > 6.60 | > 6.60 | Cc1cccc(-c2cc3c(cc2N(C)C2(C)CN(C)C2)N2C(=NNC(=O)C2C)CO3)c1 (stereo not drawn) [Example 172]
6.00 to 6.60 | > 6.60 | > 6.60 | C[C@@H]1C(=O)NN=C2COc3cc(-c4ccccc4CO)c(N(C)C4(C)CN(C)C4)cc3N21 [Example 176]
6.00 to 6.60 | > 6.60 | > 6.60 | C[C@@H]1C(=O)NN=C2COc3cc(-c4ccccc4Cl)c(N(C)C4(C)CN(C)C4)cc3N21 [Example 177]
6.00 to 6.60 | > 6.60 | > 6.60 | C[C@@H]1C(=O)NN=C2COc3cc(-c4ccc(F)cc4F)c(N(C)C4(C)CN(C)C4)cc3N21 [Example 178]
6.00 to 6.60 | > 6.60 | > 6.60 | C[C@@H]1C(=O)NN=C2COc3cc(-c4cccc(CO)c4)c(N(C)C4(C)CN(C)C4)cc3N21 [Example 179]
6.00 to 6.60 | > 6.60 | > 6.60 | C[C@@H]1C(=O)NN=C2COc3cc(-c4ccccc4F)c(N(C)C4(C)CN(C(=O)CCN(C)C)C4)cc3N21 [Example 185]
> 6.60 | > 6.60 | > 6.60 | C[C@H](O)CN1CC(C)(N(C)c2cc3c(cc2-c2ccccc2F)OCC2=NNC(=O)[C@@H](C)N23)C1 [Example 188]
6.00 to 6.60 | > 6.60 | > 6.60 | C[C@@H]1C(=O)NN=C2COc3cc(-c4ccccc4F)c(N(C)C4(C)CN(C[C@@H](C)O)C4)cc3N21 [Example 189]
6.00 to 6.60 | > 6.60 | > 6.60 | C[C@@H]1C(=O)NN=C2COc3cc(-c4ccccc4F)c(N(C)C4(C)CN(CC(C)(C)O)C4)cc3N21 [Example 190]
